We go through one compound from ChEMBL document CHEMBL4382198, “Discovery of Risdiplam, a Selective Survival of Motor Neuron-2 ( SMN2) Gene Splicing Modifier for the Treatment of Spinal Muscular Atrophy (SMA)” (J Med Chem, 2018).

A short description of data set [1]: Effect on FOXM1b/c mRNA splicing in cynomolgus monkey induced pluripotent stem cells by RT-qPCR analysis. The conditions noted are these: Macaca fascicularis. It counts as ADME, Macaca fascicularis. In general terms: In qPCR the cycle at which signal appears reflects the starting amount.
Data set [2] can be described thus: Chronic toxicity in retina of po dosed cynomolgus monkey assessed as excess vacuolation of inner nuclear layer after 39 weeks by histological analysis. It counts as organism-based, Macaca fascicularis. As to conditions: in vivo, 6552 h.
In data set [3] the test system is Mus musculus. Description: In-vivo stabilization SMN2 mRNA in SMA delta7 mouse assessed as increase in mean survival day at 0.1 to 3 mg/kg, ip dosed daily starting from postnatal day 3 to postnatal day 23 followed by po dosing 0.3 to 10 mg/kg per day via gavage. It counts as functional, organism-based.
Data set [4] concerns Mus musculus. Description: In-vivo stabilization of SMN2 mRNA in SMA neonatal delta7 mouse model assessed as increase in SMN protein levels in quadriceps at 10 mg/kg, ip dosed once daily starting from postnatal day 3 to postnatal day 9 relative to control. It counts as functional.
Data set [5] in a line: Volume of distribution at steady state in cynomolgus monkey at 0.1 mg/kg, iv administered as single dose. The conditions noted are these: in vivo, read-out: Vdss. It counts as ADME, organism-based, Macaca fascicularis.
The nature of data set [6]: AUC (0 to 24 hrs) in SMA adult C/C allele mouse model at 1 mg/kg, po dosed once daily for 10 days. Also noted: dose 1 mg/kg, time < 24 hr, route oral. It counts as ADME, organism-based. As to conditions: in vivo.
For a further data set, the species on record is Homo sapiens. Description: Modulation of human SMN2 mRNAsplicing expressed in HEK293H cells by qRT-PCR analysis. It counts as cell-based.
The test system of data set [7] is Mus musculus. Description: In-vivo stabilization of SMN2 mRNA in SMA adult C/C allele mouse model assessed as increase in SMN protein levels in quadriceps at 3 mg/kg, po dosed once daily for 10 days relative to control. It counts as functional.
A short description of data set [8]: AUC (0 to 24 hrs) in SMA neonatal delta7 mouse model at 0.1 mg/kg, ip dosed once daily starting from postnatal day 3 to postnatal day 9. The conditions noted are these: in vivo. It counts as ADME, organism-based. Also noted: time < 24 hr, dose 0.1 mg/kg, route intraperitoneal.
Data set [9] has as its system Mus musculus. Description: In-vivo stabilization SMN2 mRNA in SMA delta7 ip dosed mouse assessed as increase in number of motor neurons dosed daily starting from postnatal day 3 to postnatal day 14 by immunohistochemistry. It counts as functional, organism-based.
Data set [10] concerns Mus musculus. Description: In-vivo stabilization of SMN2 mRNA in SMA adult C/C allele mouse model assessed as increase in SMN protein levels in brain at 10 mg/kg, po dosed once daily for 10 days relative to control. It counts as functional.
Data set [11] relates to Mus musculus. Description: In-vivo stabilization of SMN2 mRNA in SMA adult C/C allele mouse model assessed as increase in SMN protein levels in quadriceps at 10 mg/kg, po dosed once daily for 10 days relative to control. It counts as functional.
In data set [12] the test system is Mus musculus. Description: In-vivo stabilization of SMN2 mRNA in SMA adult C/C allele mouse model assessed as increase in SMN protein levels in quadriceps at 1 mg/kg, po dosed once daily for 10 days relative to control. It counts as functional.
The subject of data set [13] is Mus musculus. Description: In-vivo stabilization SMN2 mRNA in SMA delta7 ip dosed mouse assessed as increase in muscle size dosed daily starting from postnatal day 3 to postnatal day 14 by immunohistochemistry. It counts as functional, organism-based.
A short description of data set [14]: Clearance in cynomolgus monkey at 0.1 mg/kg, iv administered as single dose. It counts as ADME, organism-based, Macaca fascicularis. The conditions noted are these: in vivo.

For orientation: IC50 means the concentration at which inhibition is half-maximal. In general, AUC refers to concentration integrated over time. In general, clearance refers to a measure of how efficiently the substance is removed, as volume per time.

Activity calls are given as the source filed them. No cut-off for these calls is given here.

In [1], `Cc1cn2nc(-c3cc(=O)n4cc(N5CCNC6(CC6)C5)ccc4n3)cc(C)c2n1` came in with an IC50 of 155 nM. Further, the Activity result in data set [2] was “Toxic”; with Mus musculus [4] it was 241%; in the data set with Mus musculus [7], 0%; with Mus musculus [9], “Dose-dependent effect”; in the data set on Mus musculus [10], 100%; in the data set on Mus musculus [11] it was 49%. The Activity was 0% in the data set on Mus musculus [12] and “Dose-dependent effect” in the data set with Mus musculus [13]. Further, in the data set on Mus musculus [3], the outcome was Active. Also, in data set [5], the Vd came out at 2 L/kg. In addition, the area under the curve (AUC) at 24 h in [6] stood at 9000 ng·h/mL; in data set [8] it was 2200 ng·h/mL. This compound also registered an EC1.5 in the data set listed under Homo sapiens of 4 nM. This compound also showed a clearance in data set [14] of 5.7 mL/min/kg.
